Consider 1 compound from article PMC4826227, “A pyrazolopyran derivative preferentially inhibits the activity of human cytosolic serine hydroxymethyltransferase and induces cell death in lung cancer cells” (Oncotarget, 2015).

For one experiment, the target named is T1, SHMT2 (Homo sapiens, UniProt P34897).
T1 construct: made in house
T1 sequence (P34897 30-504): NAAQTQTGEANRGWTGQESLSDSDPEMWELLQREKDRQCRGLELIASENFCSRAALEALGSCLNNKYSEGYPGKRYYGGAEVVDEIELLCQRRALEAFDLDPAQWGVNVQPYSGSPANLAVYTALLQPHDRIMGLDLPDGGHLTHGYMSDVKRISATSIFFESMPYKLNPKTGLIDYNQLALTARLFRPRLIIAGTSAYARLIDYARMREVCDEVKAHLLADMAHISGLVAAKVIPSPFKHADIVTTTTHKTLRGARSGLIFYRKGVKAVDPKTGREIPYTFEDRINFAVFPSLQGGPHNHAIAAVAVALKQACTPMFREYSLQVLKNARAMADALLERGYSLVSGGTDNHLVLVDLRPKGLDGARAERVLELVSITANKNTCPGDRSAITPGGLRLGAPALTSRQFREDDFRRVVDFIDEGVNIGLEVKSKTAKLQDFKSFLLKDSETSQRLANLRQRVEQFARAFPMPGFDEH
Nature of the experiment: Spectrophotometric quinonoid-intermediate competitive binding assay on purified recombinant SHMT2. Format: biochemical. The conditions noted are these: purified SHMT2 5.5 μM, glycine 3.0 mM, 20 μM H4PteGlu, read-out: estimated inhibition constants (IC50). Here is the method: (§1) Initially, compounds 2.2 and 2.12 (Figure 1) were tested on purified recombinant SHMT1 and SHMT2 isoforms using a spectrophotometric assay, in which the inhibitors and H4PteGlu compete for binding to the same site of the enzyme. Both isozymes (5.5 μM) were incubated with a saturating concentration of glycine (3.0 mM), in the presence of 20 μM H4PteGlu and a varying concentration of either compound 2.12 or 2.2. The activity of the enzyme was calculated from the spectrophotometric measurement of the quinonoid intermediate that develops when both glycine and H4PteGlu bind to SHMT [20]. […]
(§2) Figure 2 Activity inhibition on purified SHMTs by compound 2.12 The activity of cytosolic (black symbols) and mitochondrial (red symbols) SHMT isoforms was measured in the presence of increasing concentrations of compound 2.12. […]
(§3) Inhibition of SHMT activity by compound 2.12 was tested using competitive binding assays in which the antifolate competes for binding with H4PteGlu. […] Therefore, absorbance at 500 nm is proportional to the fraction of enzyme present as ternary complex. […] The effect of DMSO concentration on quinonoid development was analysed and found to be negligible up to 20% DMSO (v/v). […] After a rapid manual mixing, the absorbance change at 500 nm was measured. […]

The target in the next experiment is T2, SHMT1 (Homo sapiens, UniProt P34896).
T2 construct: made in house
T2 sequence (P34896 1-483): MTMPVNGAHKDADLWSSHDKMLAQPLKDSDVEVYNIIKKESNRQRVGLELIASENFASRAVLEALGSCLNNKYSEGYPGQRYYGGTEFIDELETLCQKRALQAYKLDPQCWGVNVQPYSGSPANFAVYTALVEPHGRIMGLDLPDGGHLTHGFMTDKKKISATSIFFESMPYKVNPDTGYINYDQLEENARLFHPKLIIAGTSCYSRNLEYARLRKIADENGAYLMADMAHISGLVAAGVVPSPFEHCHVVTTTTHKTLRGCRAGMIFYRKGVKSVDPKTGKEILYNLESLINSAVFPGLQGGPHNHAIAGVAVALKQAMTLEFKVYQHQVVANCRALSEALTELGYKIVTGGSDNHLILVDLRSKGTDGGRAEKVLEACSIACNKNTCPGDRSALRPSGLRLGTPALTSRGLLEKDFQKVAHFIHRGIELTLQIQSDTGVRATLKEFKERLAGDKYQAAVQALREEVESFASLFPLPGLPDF
The experiment is described as follows: Spectrophotometric quinonoid-intermediate competitive binding assay on purified recombinant SHMT1. Format: biochemical. The conditions noted are these: purified SHMT1 5.5 μM, glycine 3.0 mM, 20 μM H4PteGlu, read-out: estimated inhibition constants (IC50). Here is the method: as §1, §2, §3

The IC50 is the concentration at which inhibition is half-maximal. As to `CCC1(c2ccc(F)cc2)C(C#N)=C(N)Oc2[nH]nc(C)c21` (centres unmarked) [compound 2.2], the figures for the IC50 at SHMT2 and at SHMT1 were 263 ± 48 µM and 154 ± 14.4 µM, respectively.
